Measured values: patent US20080194585A1, “Fungicidal Pyrazine Derivatives” (priority 2005, published 2008)
Marks after values point to notes of the source that are not given here.

What was measured:
[1] = test system: Erysiphe graminis f. sp. tritici; test: Test L: wheat powdery mildew, preventive spray on wheat seedlings
[2] = test system: Puccinia recondita f. sp. tritici; test: Test K: wheat leaf rust, preventive spray on wheat seedlings
Pythium aphanidermatum = test: Test A: bluegrass pythium blight, preventive spray on bluegrass seedlings
Botrytis cinerea = test: Test E: tomato botrytis, preventive spray on tomato seedlings
fusarium graminearium = test: Test I: wheat head scab, preventive spray on wheat seedlings
Description: (the causal agent of wheat head scab) and incubated in a saturated atmosphere at 20° C. for 72 h, and then moved to a growth chamber at 22° C. for 5 days, after which disease ratings were made.

Septoria nodorum = test: Test H: wheat glum blotch, preventive spray on wheat seedlings
Description: (the causal agent of wheat glum blotch) and incubated in a saturated atmosphere at 20° C. for 48 h, and then moved to a growth chamber at 22° C. for 5 days, after which disease ratings were made.

Septoria tritici = test: Test J: wheat leaf blotch, preventive spray on wheat seedlings; assay type: in vivo
Description: A dash (-) indicates no test results.

Rhizoctonia oryzae = test: Test G: turf brown patch, preventive spray on creeping bent grass seedlings
Description: (the causal agent of turf brown patch) and incubated in a saturated atmosphere at 27° C. for 24 h, and then moved to a growth chamber at 27° C. for 5 days, after which disease ratings were made.

Phytophthora infestans = test: whole plant or invertebrate; assay type: in vivo
Sclerotinia sclerotiorum = test: Test C: cucumber white mold, preventive spray on cucumber seedlings
Plasmopara viticola = test: Test D: grape downy mildew, spray after inoculation of grape seedlings; assay type: in vivo
Description: Upon removal, disease ratings were made. […] A dash (-) indicates no test results.

[3] = test system: Colletotrichum orbiculare; test: Test B: cucumber Colletotrichum anthracnose, preventive spray on cucumber seedlings
[4] = 200 ppm, 100 = 100% disease control, 0 = no control
[5] = 40 ppm (marked *), 100 = 100% disease control, 0 = no control

Compound	Test L disease control rating ([1]; 40 ppm (*))	Test K disease control rating ([2]; 40 ppm (*))	Test A disease control rating (Pythium aphanidermatum; 200 ppm) [%]	Test E disease control rating (Botrytis cinerea; 40 ppm (*))	Test I disease control rating (fusarium graminearium; 200 ppm) [%]	Test H disease control rating (Septoria nodorum; 40 ppm (*))	Test J disease control rating (Septoria tritici; 40 ppm (*))	Test G disease control rating (Rhizoctonia oryzae; 40 ppm (*))	Test F disease control rating (Phytophthora infestans; 200 ppm) [%]	Test C disease control rating (Sclerotinia sclerotiorum; 200 ppm) [%]	Test D disease control rating (Plasmopara viticola; 200 ppm) [%]	Test B disease control rating ([3]; 40 ppm (*))	Test A disease control rating (Pythium aphanidermatum; 40 ppm (*))	Test I disease control rating (fusarium graminearium; 40 ppm (*))	Test F disease control rating (Phytophthora infestans; 40 ppm (*))	Test C disease control rating (Sclerotinia sclerotiorum; 40 ppm (*))	Test D disease control rating (Plasmopara viticola; 40 ppm (*))	also measured
CCC(C)Cn1c(-c2ccc(F)cc2Cl)c(Cl)nc(-n2cc(Br)c(C)n2)c1=O (racemic) [compound 260]	–	–	–	–	–	–	–	–	–	–	–	–	–	–	–	–	–	Test L disease control rating [1, 4]: 50%; Test K disease control rating [2, 4]: 80%; Test A disease control rating (Pythium aphanidermatum; [4]): 0%; Test E disease control rating (Botrytis cinerea; [4]): 99%; Test I disease control rating (fusarium graminearium; [4]): 0%; Test H disease control rating (Septoria nodorum; [4]): 0%; Test J disease control rating (Septoria tritici; [4]): 97%; Test G disease control rating (Rhizoctonia oryzae; [4]): 0%; Test F disease control rating (Phytophthora infestans; [4]): 0%; Test C disease control rating (Sclerotinia sclerotiorum; [4]): 0%; Test D disease control rating (Plasmopara viticola; [4]): 0%; Test B disease control rating [3, 4]: 9%
CC(C)Cn1c(-c2ccc(F)cc2Cl)c(Cl)nc(-n2cccn2)c1=O [Compound 302, 5-Chloro-6-(2-chloro-4-fluorophenyl)-1-(2-methylpropyl)-3-(1H-pyrazol-1-yl)-2(1H)-pyrazinone]	–	–	–	–	–	–	–	–	–	–	–	–	–	–	–	–	–	pest or weed control at 40 ppm ([1]; Blumeria graminis, in Triticum aestivum, 168 h, read-out: Test L disease control rating, 40 ppm (marked *), 100 = 100% disease control, 0 = no control): 98%; pest or weed control at 40 ppm ([2]; Puccinia recondita, in Triticum aestivum, 192 h, read-out: Test K disease control rating): 100%; pest or weed control at 200 ppm (Pythium aphanidermatum; Pythium aphanidermatum, 120 h, read-out: Test A disease control rating): 0%; pest or weed control at 40 ppm (Botrytis cinerea; Botrytis cinerea, in Solanum lycopersicum, topical, 72 h, read-out: Test E disease control rating): 100%; pest or weed control at 200 ppm (fusarium graminearium; Fusarium, in Triticum aestivum, topical, 192 h, read-out: Test I disease control rating, 200 ppm, 100 = 100% disease control, 0 = no control): 0%; pest or weed control at 40 ppm (Septoria nodorum; Parastagonospora nodorum, in Triticum aestivum, topical, 168 h, read-out: Test H disease control rating, 40 ppm (marked *), 100 = 100% disease control, 0 = no control): 99%; pest or weed control at 40 ppm (Septoria tritici; Zymoseptoria tritici, 528 h, 40 ppm (marked *), 100 = 100% disease control, 0 = no control, read-out: Test J disease control rating): 100%; pest or weed control at 40 ppm (Rhizoctonia oryzae; Waitea circinata, in Agrostis stolonifera, topical, 144 h, read-out: Test G disease control rating, 40 ppm (marked *), 100 = 100% disease control, 0 = no control): 94%; pest or weed control at 200 ppm (Phytophthora infestans; Phytophthora infestans, in Solanum lycopersicum, topical, 144 h, read-out: Test F disease control rating): 0%; Test C disease control rating (Sclerotinia sclerotiorum; [4]): 60%; Test D disease control rating (Plasmopara viticola; [4]): 0%; pest or weed control at 40 ppm ([3]; Colletotrichum orbiculare, in Cucumis sativus, 144 h, read-out: Test B disease control rating, 40 ppm (marked *), 100 = 100% disease control, 0 = no control): 98%
CC(C)Cn1c(-c2ccc3ccccc3c2)c(Cl)nc(-n2cncn2)c1=O [compound 119]	0* %	0* %	0	0* %	76	0* %	68* %	0* %	0	0	0	0* %	–	–	–	–	–	–
CCCc1nccn1-c1nc(Cl)c(-c2c(F)cccc2F)n(CC(C)CC)c1=O (stereo not drawn) [compound 71]	0* %	68* %	0	0* %	0	0* %	64* %	30* %	0	0	0	0* %	–	–	–	–	–	–
CC(C)Cn1c(-c2ccc(OC(F)(F)F)cc2)c(Cl)nc(-n2cncn2)c1=O [compound 77]	0* %	0* %	0	0* %	0	0* %	0* %	0* %	0	0	0	0* %	–	–	–	–	–	–
CC(C)Cn1c(-c2cccc(F)c2)c(Cl)nc(-n2cccn2)c1=O [compound 231]	0* %	28* %	–	99* %	–	0* %	89* %	0* %	–	–	–	0* %	0* %	0* %	0* %	0* %	0* %	–
O=c1c(-n2cccn2)nc(Cl)c(-c2c(F)cccc2F)n1CCO [compound 268]	–	–	–	–	–	–	–	–	–	–	–	–	–	–	–	–	–	Test L disease control rating [1, 5]: 0* %; Test K disease control rating [2, 5]: 82* %; Test A disease control rating (Pythium aphanidermatum; [5]): 0* %; Test E disease control rating (Botrytis cinerea; [5]): 0* %; Test I disease control rating (fusarium graminearium; [5]): 0* %; Test H disease control rating (Septoria nodorum; [5]): 0* %; Test J disease control rating (Septoria tritici; [5]): 7* %; Test G disease control rating (Rhizoctonia oryzae; [5]): 0* %; Test F disease control rating (Phytophthora infestans; [5]): 0* %; Test C disease control rating (Sclerotinia sclerotiorum; [5]): 0* %; Test D disease control rating (Plasmopara viticola; [5]): 0* %; Test B disease control rating [3, 5]: 0* %
CC(C)Cn1c(-c2cccnc2)c(Cl)nc(-n2cncn2)c1=O [compound 235]	0* %	0* %	–	0* %	–	0* %	0* %	0* %	–	–	–	0* %	45* %	0* %	0* %	0* %	0* %	–
Cc1ccn(-c2nc(Cl)c(-c3c(F)cccc3F)n(Cc3ccccc3)c2=O)n1 [compound 279]	–	–	–	–	–	–	–	–	–	–	–	–	–	–	–	–	–	Test L disease control rating [1, 5]: 99* %; Test K disease control rating [2, 5]: 100* %; Test A disease control rating (Pythium aphanidermatum; [5]): 0* %; Test E disease control rating (Botrytis cinerea; [5]): 99* %; Test I disease control rating (fusarium graminearium; [5]): 0* %; Test H disease control rating (Septoria nodorum; [5]): 98* %; Test J disease control rating (Septoria tritici; [5]): 100* %; Test G disease control rating (Rhizoctonia oryzae; [5]): 41* %; Test F disease control rating (Phytophthora infestans; [5]): 0* %; Test C disease control rating (Sclerotinia sclerotiorum; [5]): 0* %; Test D disease control rating (Plasmopara viticola; [5]): 0* %; Test B disease control rating [3, 5]: 78* %
CC(C)Cn1c(-c2cc(F)cc(F)c2F)c(Cl)nc(-n2cccn2)c1=O [compound 139]	99* %	99* %	–	100* %	–	97* %	100* %	91* %	–	–	–	0* %	0* %	0* %	0* %	95* %	0* %	–
